{"source": "paper PMC7855930", "about": "“Nontoxic Cobalt(III) Schiff Base Complexes with Broad‐Spectrum Antifungal Activity” (Chemistry (Weinheim an Der Bergstrasse, Germany), 2020)", "key": {"C. albicans ATCC 90028": {"tested_on": "C. albicans ATCC 90028", "test": "Antifungal MIC assay (broth microdilution in YNB)", "format": "cell-based, Candida albicans", "from_the_text": "(§1) Yeast strains: Candida albicans (ATCC 90028, NCCLS 11), Cryptococcus neoformans (ATCC 208821, H99 type strain), Candida tropicalis (ATCC 750, type strain), Candida glabrata (ATCC 90030, NCCLS 84) and Cryptococcus deuterogattii (ATCC 32609, type strain) were obtained from the American Type Culture Collection (ATCC). Cryptococcus deuterogattii (CBS 7750), Candida auris (CBS 10913) and Candida auris (CBS 12373) were obtained from the CBS‐KNAW culture collection. The strains were maintained on glycerol/YPD (yeast extract‐peptone dextrose) broth (20:80 v/v) at −80 °C.\n(§2) Antifungal minimum inhibitory concentration (MIC) assay: The cobalt complexes and antifungal control compounds were serially diluted in 50 μL of Yeast Nitrogen Broth (YNB; BD, Cat No. 233520 supplemented with 2 % glucose and 10 mM ammonium sulfate) two‐fold across the wells of non‐binding surface (NBS) 96‐well plates (Corning; Cat. No. 3641). Plates were set up in quadruplicate for each strain tested, and two biological replicates were conducted on separate assay days.\n(§3) Yeast strains were cultured from glycerol onto YPD (Becton Dickinson 242720) agar at 30 °C for 72 h. For each strain, a minimum of five single colonies were taken from the agar plate and dissolved in sterile water and adjusted to form a yeast suspension of 1×10^6 to 5×10^6 CFU mL^−1 (as determined by OD530). The suspension was subsequently diluted into YNB media, and added to each well of the compound containing plates, giving a final cell density of 2.5×10^3 CFU mL^−1 and a total volume of 100 μL. Plates were covered and incubated at 35 °C for 36 h without shaking.\n(§4) Growth inhibition of all strains was determined visually where the MIC was recorded as the lowest compound concentration with no visible growth. Fluconazole (Sigma F8929), ketoconazole (Sigma K1003) and micafungin (Sigma SML2288) were used as internal positive inhibitor controls for every strain tested."}, "C. auris CBS 10913": {"tested_on": "C. auris CBS 10913", "test": "Antifungal MIC assay (broth microdilution in YNB)", "format": "cell-based, Candida auris", "from_the_text": "as §1, §2, §3, §4"}, "C. auris CBS 12373": {"tested_on": "C. auris CBS 12373", "test": "Antifungal MIC assay (broth microdilution in YNB)", "format": "cell-based, Candida auris", "from_the_text": "as §1, §2, §3, §4"}, "C. glabrata ATCC 90030": {"tested_on": "C. glabrata ATCC 90030", "test": "Antifungal MIC assay (broth microdilution in YNB)", "format": "cell-based, Candida glabrata", "from_the_text": "as §1, §2, §3, §4"}, "C. tropicalis ATCC 750": {"tested_on": "C. tropicalis ATCC 750", "test": "Antifungal MIC assay (broth microdilution in YNB)", "format": "cell-based, Candida tropicalis", "from_the_text": "as §1, §2, §3, §4"}, "[1]": {"tested_on": "C. neoformans ATCC 208821", "test": "Antifungal MIC assay (broth microdilution in YNB)", "format": "cell-based, Cryptococcus neoformans", "from_the_text": "as §1, §2, §3, §4"}, "human red blood cells": {"tested_on": "human red blood cells", "test": "Haemolysis assay", "format": "cell-based", "settings": "1 h at 37 °C", "protocol": "Haemolysis assay: Human whole blood (Australian Red Cross Blood Service) was washed three times with three volumes of 0.9 % NaCl and resuspended in a concentration of 0.5×10^8 cells mL^−1, determined by manual cell count in a Neubauer haemocytometer. Washed cells were added to compound containing plates (384‐well round bottom polypropylene plates, Corning 3657) for a final volume of 50 μL, shaken for 10 min and incubated for 1 h at 37 °C, without shaking. After incubation, the plates were centrifuged at 1000 g for 10 min to pellet cells and debris, 25 μL of the supernatant was then transferred to reading plates (384‐well flat bottom polystyrene plates, Corning CLS3680), with haemolysis determined by measuring the supernatant absorbance at […] (OD405), using cells without inhibitors as negative control and cells with 1 % Triton X‐100 (Sigma T8787) as positive control. HC10 and HC50 (concentration at which 10 and 50 % haemolysis is induced, respectively) were calculated by curve fitting the inhibition values vs. log(concentration) of four replicates using a sigmoidal dose–response function with variable fitting values for top, bottom and slope using Prism 8. Melittin (Sigma M2272) was used as positive haemolytic control on each plate. Human ethics approval from the University of Queensland Institutional Human Research Ethics Committee was obtained for use of human blood for haemolysis studies (approval number 201400003)."}, "[2]": {"tested_on": "Acinetobacter baumannii ATCC 19606", "test": "CO-ADD bacterial broth microdilution MIC assay", "format": "cell-based", "settings": "CAMHB, 37 °C, 18 h, ≥ 80% inhibition", "protocol": "(§5) CO-ADD High Throughput Screening\n(§6) Bacterial broth microdilution minimum inhibitory concentration (MIC) assay Bacterial strains were cultured in Cation-adjusted Mueller Hinton broth (CAMHB; Bacto Laboratories 212322) at 37 °C overnight. A sample of each culture was then diluted 40-fold in fresh CAMHB and incubated at 37 °C for 1.5-3 h. The resultant mid-log phase cultures were diluted with CAMHB (CFU/mL measured by OD600), then added to each well of the compound-containing plates (384-well non-binding surface (NBS) plates; Corning CLS3640), giving a cell density of 5 × 10^5 CFU/mL and a total volume of 50 µL. Plates were covered and incubated at 37 °C for 18 h without shaking. Inhibition of bacterial growth was determined measuring absorbance at 600 nm (OD600), using media only as negative control and bacteria without inhibitors as positive control. MIC values were determined as the lowest concentration at which the growth was inhibited at ≥ 80%. Colistin sulfate (Sigma C4461) and vancomycin HCl (Sigma 861987) were used as positive inhibitor controls on each plate for Gram-negative and Gram-positive bacteria, respectively.\n(§7) Figure S1. 1H NMR (400 MHz) of [Co(ATS)(DMAP)2]NO3 (3) in DMSO-d6.\n(§8) (1 picture or pasted object on this page, not shown here)"}, "[3]": {"tested_on": "Pseudomonas aeruginosa ATCC 27853", "test": "CO-ADD bacterial broth microdilution MIC assay", "format": "cell-based", "settings": "CAMHB, 37 °C, 18 h, ≥ 80% inhibition", "protocol": "as §5, §6, §7, §8"}, "[4]": {"tested_on": "Klebsiella pneumoniae ATCC 700603 (K6; ESBL SHV-18)", "format": "cell-based", "settings": "18 h", "protocol": "as §5, §6, §7, §8"}}, "data": [{"substance": "[Co(3F‐salophen)(3F‐BnNH2)2]NO3 [Compound 6]", "values": [{"measurement": "MIC Candida albicans ATCC 90028", "setting": "C. albicans ATCC 90028; Table S1", "value": 69.4, "unit": "µg/mL"}, {"measurement": "MIC", "setting": "C. albicans ATCC 90028; range of MICs, n=8, 35 °C, 36 h, visual, read-out: MIC C. albicans ATCC 90028", "value": 100, "unit": "µM"}, {"measurement": "MIC Candida auris CBS 10913", "setting": "C. auris CBS 10913; Table S1", "value": "0.03 to 0.54", "unit": "µg/mL"}, {"measurement": "MIC C. auris CBS 10913, lowest value ('as low as')", "setting": "C. auris CBS 10913; lower end of MIC range", "value": 0.098, "unit": "µM"}, {"measurement": "MIC Candida auris CBS 12373", "setting": "C. auris CBS 12373; Table S1", "value": 17.3, "unit": "µg/mL"}, {"measurement": "MIC", "setting": "C. auris CBS 12373; range of MICs, n=8, 35 °C, 36 h, visual, read-out: MIC C. auris CBS 12373", "value": 25, "unit": "µM"}, {"measurement": "MIC Candida glabrata ATCC 90030", "setting": "C. glabrata ATCC 90030; Table S1", "value": "> 69.4", "unit": "µg/mL"}, {"measurement": "MIC", "setting": "C. glabrata ATCC 90030; range of MICs, n=8, 35 °C, 36 h, visual, read-out: MIC C. glabrata ATCC 90030", "value": ">100", "unit": "µM"}, {"measurement": "MIC Candida tropicalis ATCC 750", "setting": "C. tropicalis ATCC 750; Table S1", "value": "> 69.4", "unit": "µg/mL"}, {"measurement": "MIC", "setting": "C. tropicalis ATCC 750; range of MICs, n=8, 35 °C, 36 h, visual, read-out: MIC C. tropicalis ATCC 750", "value": ">100", "unit": "µM"}, {"measurement": "MIC Cryptococcus neoformans ATCC 208821", "setting": "[1]; Table S1", "value": 69.4, "unit": "µg/mL"}, {"measurement": "MIC", "setting": "[1]; range of MICs, n=8, 35 °C, 36 h, visual, read-out: MIC C. neoformans ATCC 208821", "value": 100, "unit": "µM"}, {"measurement": "Haem HC10 (concentration at which 10 % haemolysis is reached)", "setting": "human red blood cells", "value": ">100", "unit": "µM"}, {"measurement": "MIC Ab (Acinetobacter baumannii ATCC 19606)", "setting": "[2]", "value": "> 32", "unit": "µg/mL"}, {"measurement": "MIC Pa (Pseudomonas aeruginosa ATCC 27853)", "setting": "[3]", "value": "> 32", "unit": "µg/mL"}, {"measurement": "MIC Kp (Klebsiella pneumoniae ATCC 700603)", "setting": "[4]", "value": "> 32", "unit": "µg/mL"}]}]}
